Reference: patent publication US20050244490A1, “Dosing methods for beta-D-2',3'-dideoxy-2',3'-didehydro-5-fluorocytidine antiviral therapy” (priority 2003, published 2005)

Assay: clinical
Settings: in vivo; for CL renal: CLr; for CL/F: CLtot/F
Protocol: Total of 18 HIV-1 infected males, aged 18-55 years, enrolled, 6 per treatment cohort.
In Cohort 3, subjects received either 100 mg, or 200 mg, or placebo.
The data was analyzed using non-compartmental and two-compartmental models.
HIV RNA levels were also determined using quantitative real-time RT-PCR.
Plasma HIV-1 RNA levels were measured by quantitative reverse transcriptase-polymerase chain reaction (Q-RT-PCR) essentially as described by Stuyver, L. J. et al., “Antiviral activity and cellular toxicity of modified 2′,3′-dideoxy-2′,3′-didehydrocytidine analogues” Antimicrob Agents Chemother.

## Nc1nc(=O)n(C2C=CC(CO)O2)cc1F [β-D-D4FC, β-D-2′,3′-Didehydro-2′,3′-dideoxy-5-fluorocytidine]
human, 50 mg
  mean terminal half-life in plasma (t1/2): 6.8±4.2 h to 15.6±12.4
human, 200 mg
  mean t1/2: 11.3±1.6 hours to 14.3±3.1
human, po
  oral bioavailability: high oral bioavailability
male, human
  mean plasma half-life (t1/2): 12.3 ± 4.0 h
male, human, 10 mg
  Cmax: ~1000 nM
  AUC(0-inf): 858 ng·h/mL
  CL renal: 136 mL/min
  CL/F: 196 mL/min
male, human, 10 mg, AUC Actual
  AUC: 3.6 ± 0.5 µM·h
male, human, 10 mg, AUC(0-τ)
  AUC: 843 ng·h/mL
male, human, 10 mg, Cmax
  Cmax: 197 ng/mL
male, human, 10 mg, Cmax Actual
  Cmax: 870 ± 130 nM
male, human, 10 mg, lowest Cmax, at which a maximal effect of viral inhibition was obtained
  Cmax: 870 nM
male, human, 10 mg, t1/2 λz
  half-life: 4.2 h
male, human, 10 mg, tmax
  Tmax: 1 h
male, human, 25 mg, AUC Actual
  AUC: 8.1 ± 1.5 µM·h
male, human, 25 mg, AUC(0-τ)
  AUC: 1830 ng·h/mL
male, human, 25 mg
  AUC(0-inf): 1840 ng·h/mL
  CL renal: 120 mL/min
  CL/F: 230 mL/min
male, human, 25 mg, Cmax
  Cmax: 406 ng/mL
male, human, 25 mg, Cmax Actual
  Cmax: 1800 ± 500 nM
male, human, 25 mg, t1/2 λz
  half-life: 4.49 h
male, human, 25 mg, tmax
  Tmax: 1.17 h
male, human, 50 mg
  AUC(0-τ): 3,196 ng · h/mL
  AUC(0-∞): 3,221 ng · h/mL
  CLr: 4.30 L/h
  CLtot/F: 17,492 mL/h
  Cmax: 572 ng/mL
  t1/2 λz: 7.02 h
  AUC(0-inf): 3500 ng·h/mL
  CL renal: 73.2 mL/min
  CL/F: 245 mL/min
male, human, 50 mg, AUC Actual
  AUC: 27 ± 6.4 µM·h
male, human, 50 mg, AUC(0-τ)
  AUC: 3470 ng·h/mL
male, human, 50 mg, Cmax
  Cmax: 668 ng/mL
male, human, 50 mg, Cmax Actual
  Cmax: 4800 ± 1300 nM
male, human, 50 mg, mean Cmax
  Cmax: 2500 nM
male, human, 50 mg, t1/2 λz
  half-life: 7.73 h
male, human, 50 mg, tmax
  Tmax: 1 h
male, human, 100 mg, AUC Actual
  AUC: 32.7 ± 6.8 µM·h
male, human, 100 mg, AUC(0-τ)
  AUC: 7010 ng·h/mL
male, human, 100 mg
  AUC(0-inf): 7100 ng·h/mL
  CL renal: 124 mL/min
  CL/F: 242 mL/min
male, human, 100 mg, Cmax
  Cmax: 1120 ng/mL
male, human, 100 mg, Cmax Actual
  Cmax: 5000 ± 1200 nM
male, human, 100 mg, t1/2 λz
  half-life: 9.25 h
male, human, 100 mg, tmax
  Tmax: 2.92 h
male, human, 200 mg, AUC Actual
  AUC: 52.5 ± 9.2 µM·h
male, human, 200 mg, AUC(0-τ)
  AUC: 11200 ng·h/mL
male, human, 200 mg
  AUC(0-inf): 11400 ng·h/mL
  CL renal: 125 mL/min
  CL/F: 301 mL/min
male, human, 200 mg, Cmax
  Cmax: 1750 ng/mL
male, human, 200 mg, Cmax Actual
  Cmax: 7700 ± 1600 nM
male, human, 200 mg, mean Tmax
  Tmax: 2.9 ± 1.6 h
male, human, 200 mg, t1/2 λz
  half-life: 10.9 h
male, human, 200 mg, tmax
  Tmax: 3.33 h
male, human, mean Tmax
  Tmax: 1.1 ± 0.2 h
male, human, mean plasma half-life (t1/2)
  half-life: 12.3 ± 4 h
male, human, po, 10 mg
  AUC Projected: 5.0 µM·h
  Cmax: 630 nM
male, human, po, 10 mg, AUC
  AUC: 3.57 ± 0.55 µM·h
male, human, po, 10 mg, Cmax
  Cmax: 870 ± 130 nM
male, human, po, 10 mg, T ½
  half-life: 6.8 ± 4.2 h
male, human, po, 10 mg, Tmax
  Tmax: 1 h
male, human, po, 25 mg
  AUC Projected: 12.5 µM·h
  Cmax: 1600 nM
male, human, po, 25 mg, AUC
  AUC: 8.12 ± 1.47 µM·h
male, human, po, 25 mg, Cmax
  Cmax: 1760 ± 480 nM
male, human, po, 25 mg, T ½
  half-life: 15.6 ± 12.4 h
male, human, po, 25 mg, Tmax
  Tmax: 1.4 ± 1.1 h
male, human, po, 50 mg
  AUC: 28.03 ± 4.51 µM·h
  AUC Projected: 25 µM·h
  T ½: 13.8 ± 2.4 h
male, human, po, 50 mg, AUC
  AUC: 25.9 ± 8.3 µM·h
male, human, po, 50 mg, Cmax
  Cmax: 4400 ± 1600 nM
male, human, po, 50 mg, T ½
  half-life: 14.3 ± 3.1 h
male, human, po, 50 mg, Tmax
  Tmax: 2 ± 0.8 h
male, human, po, 100 mg
  AUC Projected: 50 µM·h
  Cmax: 6300 nM
male, human, po, 100 mg, AUC
  AUC: 32.7 ± 6.85 µM·h
male, human, po, 100 mg, Cmax
  Cmax: 4950 ± 1200 nM
male, human, po, 100 mg, T ½
  half-life: 11.3 ± 1.6 h
male, human, po, 100 mg, Tmax
  Tmax: 2.9 ± 1 h
male, human, po, 200 mg
  AUC Projected: 100 µM·h
  Cmax: 12600 nM
male, human, po, 200 mg, AUC
  AUC: 52.5 ± 9.2 µM·h
male, human, po, 200 mg, Cmax
  Cmax: 7700 ± 1600 nM
male, human, po, 200 mg, T ½
  half-life: 12 ± 0.6 h
male, human, po, 200 mg, Tmax
  Tmax: 3.3 ± 1.6 h
male
  time plasma levels remain above the median effective concentrations in human PBM cells: > 24 h
